Holding throughout (test): growth of human tumour cells (NCI), 48 h
In experiment [1] the test system is RPMI-8226 leukemia.
The subject of experiment [2] is T-47D breast.
In experiment [3] the test system is IGROV1 ovarian.
Experiment [4] relates to SN12C renal.
Experiment [5] concerns UO-31 renal.
The test system of experiment [6] is NCI-H460 lung.
Experiment [7] has as its system SF-539 CNS.
In experiment [8] the test system is KM12 colon.
Experiment [9] relates to SR leukemia.
The test system of experiment [10] is HOP-92 NSCLC.

Structures are written as SMILES. “And” between values parts separate entries of the source, which are not always exact repeats. Equal entries are not always repeated.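 Five concentrations, 48 hours, 96-well plates. Here, GI50 denotes the concentration required for 50% inhibition of growth. Definition used: TGI = concentration required for complete inhibition of growth.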

On to `CCOc1ccc2c(c1)CN(Cc1ccc(Cl)cc1)CO2`, for which the GI50 in experiment [1] was 19.9 µM; in [2] it was 17.8 µM; in experiment [3], 23 µM; in experiment [4], 25.9 µM; in experiment [5], 8.82 µM; in experiment [6], 16 µM. Besides, the GI50 in experiment [7] was 15.8 µM; in experiment [8], 18.3 µM; in [9], 15.6 µM; in [10] it was 8.63 µM. For the same compound, the TGI in experiment [1] is 46.4 µM; in experiment [2], 52.7 µM; in [3], 63.7 µM; in experiment [4], more than 100 µM; in experiment [5] it was 43.8 µM; in experiment [6] it was 32.4 µM. Besides, the TGI in [7] was 32.4 µM; in experiment [8], 35.5 µM; in [9], 63.7 µM; in experiment [10], 36.8 µM.
For `O=C1c2cccnc2C(=O)c2c1c(C(=O)NCCn1ccnc1)c1ccccn21`, the GI50 in experiment [1] was 5.95 µM; in [2], 3.24 µM; in experiment [3], 3.27 µM; in experiment [4], 2.28 µM; in experiment [5], 4.07 µM; in experiment [6] it was 0.551 µM. The GI50 in [7] is 2.45 µM; in experiment [8], 2.96 µM; in experiment [9], 2.2 µM; in [10], 9.28 µM. The TGI in [1] amounted to 88.4 µM; in [2] it was 11.6 µM; in [3], 14.2 µM; in [4] it was 7.28 µM; in experiment [5], 41.6 µM; in experiment [6], 2.29 µM. Moreover, the TGI in experiment [7] is 6.47 µM; in [8] it was 19 µM; in experiment [9], more than 100 µM; in experiment [10], 31.7 µM.
`CC(c1ccccc1)[C@@H](C(=O)Nc1ccc(I)cc1F)N1C(=O)N[C@H](c2ccc(OC[C@H](O)CO)cc2)C1=O` (some centres not stated): the GI50 in [1] is 11.9 µM; in experiment [2] it was 10.2 µM; in [3], 2.04 µM; in [4], 6.14 µM; in experiment [5], 9.91 µM; in experiment [6], more than 14.6 µM. The GI50 was 15.5 µM in [7], 2.4 µM in [8], more than 20.5 µM in [9] and 0.552 µM in experiment [10]. Besides, the TGI in experiment [1], in [2], in experiment [3], in [4], in experiment [5] and in [6] was more than 25 µM in each case. Moreover, the TGI is more than 25 µM in experiment [7], more than 25 µM in experiment [8], more than 25 µM in [9] and 7.03 µM in experiment [10].
Turning to `C/C(=N/O)c1ccc2c(c1)/C(=N/O)c1ccccc1-2`, the GI50 is 22.5 µM in experiment [1]; 24 µM in experiment [2]; 22.3 µM in experiment [3]; 19.8 µM in [4]; 18.7 µM in experiment [5]; 21.1 µM in experiment [6]. Further, the GI50 in experiment [7] was 21.6 µM; in [8] it was 18.1 µM; in experiment [9], 12.5 µM; in experiment [10], 27.8 µM. Further, the TGI stood at 48.8 µM in experiment [1]; 52.7 µM in [2]; 41.1 µM in [3]; 44.5 µM in experiment [4]; 38.2 µM in [5]; 46.4 µM in [6]. The TGI in [7] is 50 µM; in [8], 35.4 µM; in experiment [9], 31.8 µM; in experiment [10], 60 µM.
`CCN(CC)CCC(CNc1ccnc2cc(Cl)ccc12)c1ccccc1` (configuration not stated): the GI50 in experiment [1] is 3.11 µM; in experiment [2], 2.85 µM; in experiment [3], 7.98 µM; in experiment [4] it was 16.3 µM; in experiment [5], 2.72 µM; in experiment [6] it was 8.36 µM. Moreover, the GI50 in experiment [7] was 1.81 µM; in [8] it was 7.29 µM; in experiment [9], 2.23 µM; in experiment [10], 4.51 µM. In addition, the TGI was 13.5 µM in experiment [1]; 8.08 µM in [2]; 55.7 µM in experiment [3]; more than 100 µM in experiment [4]; 14.3 µM in [5]; 29 µM in experiment [6]. Further, the TGI in [7] came out at 4.11 µM; in experiment [8], 75.1 µM; in [9], 8.48 µM; in experiment [10], 21 µM.
With `Cc1ccc(-c2nc(N3CCNCC3)c3oc(-c4ccccc4)nc3n2)cc1`, the GI50 is 2.16 µM in experiment [1]; 1.81 µM in [2]; 1.87 µM in experiment [3]; 1.8 µM in [4]; 1.43 µM in [5]; 1.83 µM in experiment [6]. In addition, the GI50 is 1.78 µM in experiment [7], 1.85 µM in experiment [8], 1.26 µM in [9] and 1.66 µM in [10]. Further, the TGI in [1] is 4.77 µM; in experiment [2], 3.83 µM; in experiment [3], 3.64 µM; in experiment [4], 3.3 µM; in [5] it was 2.78 µM; in experiment [6], 3.52 µM. Further, the TGI in experiment [7] came to 3.28 µM; in experiment [8] it was 3.51 µM; in [9], 3.24 µM; in experiment [10], 3.36 µM.
Regarding `CC(C)(C)NC(=O)[C@H]1CC[C@H]2[C@@H]3CC[C@H]4NC(=O)C=C[C@]4(C)[C@H]3CC[C@]12C`, the GI50 in experiment [1] is 42.8 µM and 67.2 µM; in experiment [2], > 100 µM and 67.2 µM; in experiment [3], more than 100 µM; in experiment [4] it was more than 100 µM; in experiment [5], 71.1 µM and > 100 µM; in experiment [6], more than 100 µM. In addition, the GI50 in experiment [7] is more than 100 µM; in experiment [8] it was more than 100 µM; in experiment [9] it was more than 100 µM; in experiment [10] it was 30.3 µM. The TGI in [1], in experiment [2], in experiment [3], in [4], in experiment [5] and in experiment [6] was more than 100 µM throughout. The TGI in [7], in [8], in experiment [9] and in [10] was more than 100 µM each time.
Take `Cc1c(-c2ccc(O)cc2)oc(=O)c2ccc(O)cc12`: the GI50 in experiment [1] was 31 µM; in experiment [2], more than 100 µM; in experiment [3] it was 35.7 µM; in experiment [4], 66.6 µM; in experiment [5], 69.9 µM; in experiment [6], 45.3 µM. Moreover, the GI50 in [7] is 36.7 µM; in [8], 60.9 µM; in [9], 41.6 µM; in experiment [10] it was more than 100 µM. The TGI in experiment [1], in [2], in experiment [3], in experiment [4], in experiment [5] and in [6] was more than 100 µM throughout. Moreover, the TGI in experiment [7], in experiment [8], in experiment [9] and in experiment [10] was more than 100 µM each time.
For the compound `CN1CCN(c2ccc(NC(=O)c3cncnc3Nc3ccc(OCc4cccc(F)c4)c(Cl)c3)cc2)CC1`, the GI50 in [1] is 1.26 µM; in [2], 3.63 µM; in experiment [3] it was 1.78 µM; in [4], 1.13 µM; in experiment [5], 0.893 µM; in experiment [6], 1.14 µM. Further, the GI50 is 0.847 µM in [7], 2.21 µM in experiment [8], 0.939 µM in [9] and 1.95 µM in experiment [10]. In addition, the TGI is 3.32 µM in experiment [1]; more than 50 µM in [2]; more than 50 µM in experiment [3]; 2.75 µM in experiment [4]; 1.7 µM in experiment [5]; 2.47 µM in experiment [6]. The TGI in experiment [7] was 1.6 µM; in [8] it was more than 50 µM; in [9] it was 2.46 µM; in experiment [10], 18.1 µM.
Turning to `COc1cc(/C=C/C(=O)/C=C/c2cc3ccc(Cl)cc3n(Cc3ccccc3)c2=O)ccc1O`, the GI50 is 1.23 µM in experiment [1]; 2.02 µM in experiment [2]; 1.74 µM in experiment [3]; 1.95 µM in [4]; 1.34 µM in [5]; 1.89 µM in [6]. The GI50 was 1.62 µM in experiment [7], 1.7 µM in experiment [8], 0.457 µM in experiment [9] and 2.21 µM in experiment [10]. Further, the TGI in experiment [1] was determined as 10.9 µM; in experiment [2], 11.5 µM; in [3], 4.53 µM; in experiment [4], 5.01 µM; in experiment [5] it was 2.64 µM; in experiment [6], 4.27 µM. In addition, the TGI in [7] was 3.53 µM; in experiment [8], 3.59 µM; in experiment [9], more than 100 µM; in experiment [10] it was 5.44 µM.
As to `ClCc1ccc(Cn2cnc3c(Cl)ncnc32)cc1`, the GI50 in experiment [1] is 12.2 µM; in experiment [3] it was 13.6 µM; in experiment [4], 8.46 µM; in [6] it was 1.34 µM; in experiment [7] it was 10.9 µM; in [8] it was 10.3 µM. In addition, the figures for the GI50 in [9] and in experiment [10] were 0.0902 µM and 8.48 µM, respectively. Moreover, the TGI in experiment [1] is 33.5 µM; in experiment [2], more than 100 µM; in experiment [3], 42 µM; in [4] it was 20.5 µM; in [5], more than 21.5 µM; in [6], 15.6 µM. Besides, the values for the TGI in [7], in experiment [8] and in [10] were 29.2 µM, 30.2 µM and 39.9 µM, respectively.
Take `O=C(/C=C/C(Cl)(Cl)Cl)Nc1ccc(Cl)cc1`: the TGI in experiment [1] is 3.85 µM; in experiment [2], 7.84 µM; in experiment [3], 1.82 µM; in experiment [4], 25.8 µM; in [5] it was 1.91 µM; in experiment [6], 40 µM. In addition, the TGI in [7] came to 3.97 µM; in experiment [8], 6.07 µM; in experiment [9] it was 3.25 µM; in [10] it was 4.08 µM.
Regarding `C(=Nc1cnc2ccccc2c1)c1ccc2ccccc2n1`, the TGI in experiment [1], in experiment [2], in [3], in experiment [4], in [5] and in experiment [6] was more than 100 µM each time. In addition, the TGI in [7] is more than 100 µM; in experiment [8], more than 100 µM; in [9] it was 71.4 µM; in experiment [10], more than 100 µM.

Source of the values: PubChem BioAssay (NCI).
